This note sets out measurements from ChEMBL document CHEMBL1201862, “PubChem BioAssay data set” (2004).

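A five-concentration, 48-hour dose response in 96-well plates underlies each endpoint, interpolated linearly between surrounding concentrations. The concentration for 50% growth inhibition is given as GI50.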 The source made the active and inactive calls. No stated cut-off is given here; in the data, active = GI50 up to about 1.1 µM and inactive = higher. Bounds are passed on as bounds.

Among the test systems are A498; A549; ACHN; CAKI-1; CCRF-CEM; COLO 205; HCC 2998; HCT-15; IGROV-1; Malme-3M; NCI/ADR-RES; OVCAR-4; OVCAR-5; OVCAR-8; PC-3; RXF 393; SF-268; TK-10; UACC-257; SR.
Holding throughout (test): NCI-60 cell line screen, 48 h

For `O=C1C=CC2(O[C@H](c3ccccc3)[C@@H](c3ccccc3)O2)[C@H](Sc2ccccc2O)C1`, the GI50 in the assay on A498 is 2.24 µM (inactive); with A549, 2.73 µM (inactive); with ACHN it was 0.351 µM (active); in the assay with CAKI-1 it was 0.34 µM (active); in the assay with CCRF-CEM it was < 0.0156 µM (active); with COLO 205 it was 0.499 µM (active). Moreover, the GI50 in the assay on HCC 2998 was 0.454 µM (active); with HCT-15 it was 0.221 µM; with IGROV-1 it was 0.281 µM (active); with Malme-3M, 0.294 µM (active); in the assay with NCI/ADR-RES, 0.414 µM (active); in the assay with OVCAR-4 it was 1.08 µM (active). The GI50 was 2.35 µM (inactive) with OVCAR-5; 0.105 µM (active) with OVCAR-8; 0.7 µM (active) with PC-3; 0.238 µM (active) in the assay with RXF 393; 0.29 µM (active) in the assay on SF-268; 0.29 µM (active) in the assay on TK-10. The GI50 in the assay on UACC-257 is 0.658 µM (active).
As to `O=C1C(c2ccccc2)=C(O)c2cccc3cccc1c23`, the GI50 in the assay on A498, in the assay on A549, with ACHN, in the assay with CAKI-1, with CCRF-CEM and in the assay with COLO 205 was > 100 µM (inactive) each time. Moreover, the GI50 in the assay with HCC 2998 was > 100 µM (inactive); with HCT-15 it was over 100 µM; with IGROV-1, > 100 µM (inactive); in the assay with Malme-3M, > 100 µM (inactive); in the assay with OVCAR-4, > 100 µM (inactive); with OVCAR-5, > 100 µM (inactive). Also, the GI50 in the assay on OVCAR-8, in the assay with RXF 393, in the assay with SF-268, with SR, in the assay on TK-10 and in the assay with UACC-257 was > 100 µM (inactive) throughout.
Take `COc1ccc2c3c([nH]c2c1)CCN(Cc1ccccc1)C3`: the GI50 was 15.1 µM (inactive) in the assay with A498; 62.1 µM (inactive) in the assay with A549; 31.3 µM (inactive) in the assay on ACHN; 34.3 µM (inactive) in the assay on CCRF-CEM; 18.7 µM (inactive) with COLO 205; 19.1 µM (inactive) in the assay on HCC 2998. In addition, the GI50 was 17.9 µM in the assay on HCT-15; 73.6 µM (inactive) in the assay with IGROV-1; 18.7 µM (inactive) in the assay with Malme-3M; 31.5 µM (inactive) with NCI/ADR-RES; 62.8 µM (inactive) in the assay on OVCAR-4; 21 µM (inactive) in the assay on OVCAR-5. Also, the GI50 in the assay with OVCAR-8 was 48.3 µM (inactive); in the assay on RXF 393, 18.3 µM (inactive); in the assay with SF-268, > 100 µM (inactive); in the assay on SR it was 17.4 µM (inactive); with TK-10 it was 24.4 µM (inactive); in the assay with UACC-257, 19.6 µM (inactive).
On to `N#CC1(C#N)C2CCCCC23OC(=N)C1(C#N)C(c1ccccc1)O3` (stereo not given), for which the GI50 in the assay with A498 was 17.8 µM (inactive); in the assay with A549 it was > 100 µM (inactive); in the assay with ACHN, 36.1 µM (inactive); in the assay with CAKI-1, 10.8 µM (inactive); in the assay with CCRF-CEM, 5.24 µM (inactive); in the assay on COLO 205 it was 13.4 µM (inactive). In addition, the GI50 was 14.2 µM (inactive) in the assay with HCC 2998; 12.4 µM with HCT-15; 19 µM (inactive) in the assay with IGROV-1; 17 µM (inactive) in the assay with Malme-3M; 41.5 µM (inactive) with NCI/ADR-RES; 21.2 µM (inactive) in the assay with OVCAR-5. Further, the GI50 with OVCAR-8 was 21 µM (inactive); in the assay on PC-3, 21.4 µM (inactive); with RXF 393, 31.8 µM (inactive); with SF-268, 2.49 µM (inactive); in the assay with TK-10, 16.6 µM (inactive); with UACC-257, 18 µM (inactive).
With `COC1CC(C)C(OC)c2cc(O)cc(c2O)NC(=O)/C(C)=C/C=C\C(C)C(OC(N)=O)/C(C)=C\C(C)C1OC` (stereo not given), the GI50 in the assay with A498 was 3.49 µM (inactive); in the assay on A549, 2.51 µM (inactive); in the assay on ACHN, 4.98 µM (inactive); in the assay on CCRF-CEM it was 0.192 µM (active); in the assay on COLO 205 it was 0.0516 µM (active); with HCC 2998, 0.951 µM (active). For the same compound, the GI50 in the assay on HCT-15 is 5.6 µM; with IGROV-1, 0.221 µM (active); with Malme-3M it was 0.225 µM (active); with OVCAR-4 it was 3.2 µM (inactive); in the assay on OVCAR-5, 1.47 µM (inactive); in the assay on OVCAR-8, 7.28 µM (inactive). Besides, the GI50 in the assay on PC-3 is 0.228 µM (active); in the assay with RXF 393, 0.316 µM (active); in the assay with SF-268, 2.19 µM (inactive); with SR, 0.0396 µM (active); in the assay on TK-10 it was 6.97 µM (inactive); in the assay with UACC-257, 0.397 µM (active).
Consider `COC(=O)C1=C(O)C(C(=O)OC)[C@]2(O)[C@H](C(=O)OC)[C@H]1C[C@@H](c1cccc(OC)c1)[C@H]2C(=O)OC` (stereo not given in full), for which the GI50 in the assay with A498 was 21.4 µM (inactive); in the assay on A549 it was 23.6 µM (inactive); with ACHN, 20.4 µM (inactive); with CAKI-1, 22.4 µM (inactive); in the assay on COLO 205, 46.1 µM (inactive); with HCC 2998 it was 20.5 µM (inactive). In addition, the GI50 with HCT-15 was 26.3 µM; in the assay with IGROV-1 it was 39 µM (inactive); with Malme-3M it was 24.5 µM (inactive); in the assay with NCI/ADR-RES it was 29.4 µM (inactive); in the assay with OVCAR-4, 29 µM (inactive); in the assay with OVCAR-5, 24.9 µM (inactive). Also, the GI50 in the assay on OVCAR-8 was 31.6 µM (inactive); in the assay on RXF 393 it was 18.8 µM (inactive); in the assay with SF-268 it was 26.1 µM (inactive); in the assay on SR, 21.9 µM (inactive); in the assay with TK-10, 34 µM (inactive); with UACC-257 it was 37.7 µM (inactive).
Consider `O=[N+]([O-])c1ccc(O)c(/C=N/CC2CCCN3CCCCC23)c1` (stereo not given), for which the GI50 in the assay on A549 was 91.4 µM (inactive); with ACHN, 26.9 µM (inactive); in the assay with CAKI-1, 57.7 µM (inactive); in the assay with COLO 205, 24.2 µM (inactive); in the assay with HCC 2998, 22.5 µM (inactive); in the assay with HCT-15 it was 41.1 µM. The GI50 in the assay with IGROV-1 is 43.9 µM (inactive); with Malme-3M it was 31 µM (inactive); with NCI/ADR-RES, 20.7 µM (inactive); in the assay with OVCAR-5 it was 31.7 µM (inactive); in the assay with OVCAR-8 it was 30.8 µM (inactive); in the assay on PC-3, 57.1 µM (inactive). For the same compound, the GI50 is 23 µM (inactive) in the assay on RXF 393, 21.3 µM (inactive) in the assay with SF-268, > 100 µM (inactive) in the assay on TK-10 and 32.5 µM (inactive) in the assay with UACC-257.
`O=S(=O)(O)c1cc(S(=O)(=O)O)c2c(/N=N/c3ccc(S(=O)(=O)O)c4ccccc34)c(O)ccc2c1`: the GI50 in the assay with A549 is > 100 µM (inactive); in the assay on ACHN, > 100 µM (inactive); with CAKI-1, > 100 µM (inactive); in the assay on CCRF-CEM, > 100 µM (inactive); with COLO 205, > 100 µM (inactive); in the assay with HCT-15, over 100 µM. The GI50 in the assay on IGROV-1 was > 100 µM (inactive); with Malme-3M it was 21.9 µM (inactive); in the assay with NCI/ADR-RES it was > 100 µM (inactive); in the assay with OVCAR-4, > 100 µM (inactive); with OVCAR-5, > 100 µM (inactive); in the assay with OVCAR-8, > 100 µM (inactive). For the same compound, the GI50 with PC-3, with RXF 393, with SF-268, with TK-10 and with UACC-257 was > 100 µM (inactive) throughout.
As to `Cc1ccc(-n2nnc(C(N)=O)c2O)cc1`, the GI50 in the assay on A549, with ACHN, in the assay with CAKI-1, in the assay with CCRF-CEM, in the assay on COLO 205 and in the assay with HCC 2998 was > 100 µM (inactive) throughout. For the same compound, the GI50 in the assay on HCT-15 was over 100 µM; in the assay on IGROV-1, > 100 µM (inactive); with Malme-3M, > 100 µM (inactive); with NCI/ADR-RES, > 100 µM (inactive); in the assay with OVCAR-4, > 100 µM (inactive); in the assay on OVCAR-5 it was > 100 µM (inactive). For the same compound, the GI50 with OVCAR-8, in the assay with PC-3, with RXF 393, in the assay on SF-268, with TK-10 and in the assay with UACC-257 was > 100 µM (inactive) each time.
On to `CC(=O)C1C(=O)C(=O)N(c2ccc([N+](=O)[O-])cc2[N+](=O)[O-])C1=O` (stereo not given), for which the GI50 in the assay on A549, in the assay on ACHN, with CAKI-1, in the assay with CCRF-CEM, in the assay with COLO 205 and in the assay with HCC 2998 was > 100 µM (inactive) throughout. Further, the GI50 in the assay on HCT-15 was over 100 µM; with IGROV-1, > 100 µM (inactive); in the assay with NCI/ADR-RES, > 100 µM (inactive); in the assay with OVCAR-4, > 100 µM (inactive); with OVCAR-5, > 100 µM (inactive); in the assay on OVCAR-8, > 100 µM (inactive). The GI50 in the assay on PC-3 was > 100 µM (inactive); in the assay on RXF 393 it was 1.96 µM (inactive); in the assay on SF-268, > 100 µM (inactive); in the assay on TK-10 it was 80.4 µM (inactive); in the assay on UACC-257, > 100 µM (inactive).
As to `CC(=O)O[C@H]1C[C@H](O[C@H]2[C@@H](O)C[C@H](O[C@H]3[C@@H](O)C[C@H](O[C@H]4CC[C@@]5(C)[C@H](CC[C@@H]6[C@@H]5CC[C@]5(O)[C@@H](C7=CC(=O)OC7)CC[C@]65O)C4)O[C@@H]3C)O[C@@H]2C)O[C@H](C)[C@H]1O[C@@H]1O[C@H](CO)[C@@H](O)[C@H](O)[C@H]1O`, the GI50 with A498 is 0.383 µM (active); in the assay with A549 it was 0.0581 µM (active); in the assay with ACHN, 0.075 µM (active); in the assay on CAKI-1, 0.132 µM (active); in the assay on CCRF-CEM, 0.116 µM (active); with COLO 205, 0.711 µM (active). Also, the GI50 is 1.52 µM (inactive) in the assay with HCC 2998; 0.293 µM in the assay with HCT-15; 0.356 µM (active) in the assay with IGROV-1; 0.403 µM (active) in the assay on Malme-3M; 0.237 µM (active) in the assay with NCI/ADR-RES; 0.497 µM (active) with OVCAR-4. Also, the GI50 in the assay with OVCAR-5 was 0.455 µM (active); in the assay with OVCAR-8, 0.452 µM (active); in the assay with PC-3, 0.328 µM (active); in the assay on SF-268, 0.358 µM (active); in the assay on TK-10 it was 0.428 µM (active); in the assay with UACC-257, 0.597 µM (active).
